Results published in patent publication US4868181A, “1,4-dihydropyridine derivatives with calcium agonist and alpha1 -antagonist activity” (E. I. Du Pont de Nemours and Company, priority 1987, dated 1989).
pEC50, pIC50: −log10 of the molar value.

Key:
Ca^2 + channels = molecular target: T1, Ca^2 + channels (Rattus norvegicus, UniProt P22002); test: [^3 H]-Nitrendipine binding assay (affinity for calcium channels); conditions: rat cardiac microsomes, 0.5 nM [^3 H]-nitrendipine, 60 minutes at 25°
T1 construct: rat cardiac microsomes (source of Ca^2 + channels); from tissue; host or cells: rat cardiac microsomes
Procedure: [^3 H]-Nitrendipine binding assay was carried out according to the method described by G. T. Bolger, et al., Biochem. Biophys. Res. Comm., 104, 1604-1609, 1982 (1). The reaction mixture contained rat cardiac microsomes (source of Ca^2 + channels), 0.5 nM [^3 H]-nitrendipinewith or without potential displacer in Tris buffer. The mixture was incubated for 60 minutes at 25° and subsequently terminated by rapid filtration through a glass fiber-filter. Membrane-bound [^3 H]-nitrendipine trapped in the filter was quantitated by scintillation counting. The inhibitory concentration (IC50) of potential displacer which gives 50% displacement of the total specifically bound [^3 H]-nitrendipine is presented as a measure of the affinity of such compound for the Ca^2 + channel.

alpha1 -adrenoceptors = test: [^3 H]-prazosin binding assay (affinity for alpha1-adrenoceptors); conditions: rat brain membranes, 0.2 nM [^3 H]-prazosin, 60 minutes at 25°
Procedure: The [^3 H]-prazosin binding assay was carried out according to the method described by Timmermans, P. B. M. W. M., Schoop, A. M. C., and Van Zwieten, P. A.: Biochem Pharmacol., 31, 899-905, 1982 (1). The reaction mixture contained partially purified rat brain membranes (source of alpha1 -adrenoceptors), 0.2 nM [^3 H]-prazosin with or without potential displacer in Tris buffer. The mixture was incubated for 60 minutes at 25° and subsequently terminated by rapid filtration through glass fiber-filter. Receptor-bound [^3 H]-prazosin trapped in the filter was quantitated by scintillation counting. The inhibitory concentration (IC50) of potential displacer which gives 50% displacement of the total specifically bound [^3 H]-prazosin is presented as a measure of the affinity of such compound for the alpha1 -adrenoceptor.

guinea pig left atria = test: Positive inotropic effect in guinea pig left atria; conditions: 37°; for pEC50: left atria paced at 2Hz, cumulative addition to maximum 10^-4, read-out: EC50 (concentration that increases DT by 50% above the control DT); for Intrinsic Activity (ratio of the maximum effect of the test compound to that of Bay K 8644): relative to Bay K 8644, left atria paced at 2Hz
Procedure: Guinea pigs are killed by cervical dislocation. The left atria are removed and mounted at 1 gm resting tension in tissue baths containing oxygenated Krebs bicarbonate solution which is kept at 37°. The left atria are electrically paced at 2Hz with square wave pulses of 1 msec duration. The voltage is set at 1.5× threshold level.
After a one hour equilibration period, control values for developed tension (DT, gm) are recorded. Test compounds are then added to the baths, in a cumulative manner to a maximum concentration of 10^-4, to obtain a concentration-response curve. Treatment values of DT are obtained after the rug effect has reached a plateau and the exposure time for each concentration is 5-8 minutes. Percent change of the treatment value from the control value is calculated at each concentration of the test compound.

T1 sequence (P22002 whole entry, other chains not shown): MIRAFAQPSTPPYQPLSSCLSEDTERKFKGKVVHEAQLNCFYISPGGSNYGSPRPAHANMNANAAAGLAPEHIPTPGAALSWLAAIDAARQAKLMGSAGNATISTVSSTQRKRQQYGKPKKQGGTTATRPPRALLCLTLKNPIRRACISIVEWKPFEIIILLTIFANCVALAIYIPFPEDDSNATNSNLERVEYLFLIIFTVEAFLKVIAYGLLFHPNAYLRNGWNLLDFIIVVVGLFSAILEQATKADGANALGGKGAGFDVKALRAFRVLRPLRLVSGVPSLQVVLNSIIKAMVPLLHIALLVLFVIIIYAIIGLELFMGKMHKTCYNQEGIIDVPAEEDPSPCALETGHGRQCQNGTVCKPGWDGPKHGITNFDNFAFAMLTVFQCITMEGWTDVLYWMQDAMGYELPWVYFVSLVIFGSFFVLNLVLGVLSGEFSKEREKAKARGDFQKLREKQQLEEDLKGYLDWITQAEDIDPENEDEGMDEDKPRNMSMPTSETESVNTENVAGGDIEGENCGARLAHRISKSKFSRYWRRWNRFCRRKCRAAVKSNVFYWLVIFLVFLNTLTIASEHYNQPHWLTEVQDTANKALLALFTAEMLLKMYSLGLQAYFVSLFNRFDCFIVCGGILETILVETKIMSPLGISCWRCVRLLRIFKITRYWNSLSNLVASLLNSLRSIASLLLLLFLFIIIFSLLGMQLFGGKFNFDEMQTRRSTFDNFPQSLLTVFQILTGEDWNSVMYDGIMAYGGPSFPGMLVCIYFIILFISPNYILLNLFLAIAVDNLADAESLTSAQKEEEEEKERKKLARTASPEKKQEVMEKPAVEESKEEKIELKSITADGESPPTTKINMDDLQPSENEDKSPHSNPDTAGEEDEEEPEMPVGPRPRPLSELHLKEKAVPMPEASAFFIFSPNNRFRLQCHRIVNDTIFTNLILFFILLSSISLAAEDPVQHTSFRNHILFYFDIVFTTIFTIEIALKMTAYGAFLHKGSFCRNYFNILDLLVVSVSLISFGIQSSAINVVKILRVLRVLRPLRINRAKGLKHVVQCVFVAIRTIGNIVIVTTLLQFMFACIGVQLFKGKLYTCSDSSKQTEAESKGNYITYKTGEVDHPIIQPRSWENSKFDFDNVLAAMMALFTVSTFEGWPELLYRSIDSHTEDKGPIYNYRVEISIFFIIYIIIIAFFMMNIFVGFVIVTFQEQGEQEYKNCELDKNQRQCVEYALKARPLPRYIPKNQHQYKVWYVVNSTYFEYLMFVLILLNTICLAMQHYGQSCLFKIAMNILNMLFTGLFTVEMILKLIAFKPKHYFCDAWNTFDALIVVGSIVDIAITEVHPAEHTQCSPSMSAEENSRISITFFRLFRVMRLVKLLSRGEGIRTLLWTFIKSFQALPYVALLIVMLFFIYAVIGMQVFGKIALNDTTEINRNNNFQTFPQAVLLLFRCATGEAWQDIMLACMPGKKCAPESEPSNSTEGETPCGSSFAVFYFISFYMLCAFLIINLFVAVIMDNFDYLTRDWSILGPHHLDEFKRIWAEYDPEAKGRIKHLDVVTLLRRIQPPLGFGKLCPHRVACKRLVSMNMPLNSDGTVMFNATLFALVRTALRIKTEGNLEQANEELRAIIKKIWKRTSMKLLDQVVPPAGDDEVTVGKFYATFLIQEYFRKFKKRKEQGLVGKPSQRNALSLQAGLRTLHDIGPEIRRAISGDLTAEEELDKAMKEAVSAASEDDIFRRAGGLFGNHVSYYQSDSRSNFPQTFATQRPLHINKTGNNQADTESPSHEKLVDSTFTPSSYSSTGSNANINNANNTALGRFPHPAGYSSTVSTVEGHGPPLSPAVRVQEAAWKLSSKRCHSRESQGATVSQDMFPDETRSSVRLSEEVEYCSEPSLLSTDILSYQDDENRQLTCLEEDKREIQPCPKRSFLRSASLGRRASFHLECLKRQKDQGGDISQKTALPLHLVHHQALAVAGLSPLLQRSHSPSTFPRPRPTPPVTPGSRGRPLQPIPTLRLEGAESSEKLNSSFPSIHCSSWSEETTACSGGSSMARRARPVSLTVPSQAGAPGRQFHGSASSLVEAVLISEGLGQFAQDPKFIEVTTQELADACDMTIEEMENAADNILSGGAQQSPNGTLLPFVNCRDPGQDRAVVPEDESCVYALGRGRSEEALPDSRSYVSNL
T1 sequence (P54290 25-944 partner limits assumed, other chains not shown): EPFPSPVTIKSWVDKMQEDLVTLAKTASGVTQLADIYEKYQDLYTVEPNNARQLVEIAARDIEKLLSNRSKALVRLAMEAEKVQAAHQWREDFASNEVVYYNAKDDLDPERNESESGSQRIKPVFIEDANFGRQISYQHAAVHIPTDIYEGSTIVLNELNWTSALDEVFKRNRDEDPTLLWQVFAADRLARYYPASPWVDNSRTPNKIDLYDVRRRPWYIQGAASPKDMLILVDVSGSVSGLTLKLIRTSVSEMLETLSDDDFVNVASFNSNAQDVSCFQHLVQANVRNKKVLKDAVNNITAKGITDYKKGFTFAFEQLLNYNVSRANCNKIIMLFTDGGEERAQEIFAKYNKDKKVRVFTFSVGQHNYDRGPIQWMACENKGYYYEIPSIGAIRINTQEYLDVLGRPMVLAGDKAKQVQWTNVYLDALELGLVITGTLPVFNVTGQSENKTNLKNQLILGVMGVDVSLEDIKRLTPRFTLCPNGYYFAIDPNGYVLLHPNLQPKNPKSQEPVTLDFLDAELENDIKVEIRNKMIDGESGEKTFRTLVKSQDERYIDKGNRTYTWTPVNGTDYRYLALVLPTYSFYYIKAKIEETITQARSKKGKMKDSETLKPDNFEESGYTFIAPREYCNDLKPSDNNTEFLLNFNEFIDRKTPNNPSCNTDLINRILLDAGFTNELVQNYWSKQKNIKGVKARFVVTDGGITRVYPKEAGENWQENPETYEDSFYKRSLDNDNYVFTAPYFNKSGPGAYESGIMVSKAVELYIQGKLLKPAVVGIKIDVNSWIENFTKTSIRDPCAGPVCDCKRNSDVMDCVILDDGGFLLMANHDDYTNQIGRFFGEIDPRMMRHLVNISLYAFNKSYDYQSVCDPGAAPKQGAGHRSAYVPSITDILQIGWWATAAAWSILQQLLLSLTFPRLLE
T1 sequence (P54290 945-1091 partner limits assumed, other chains not shown): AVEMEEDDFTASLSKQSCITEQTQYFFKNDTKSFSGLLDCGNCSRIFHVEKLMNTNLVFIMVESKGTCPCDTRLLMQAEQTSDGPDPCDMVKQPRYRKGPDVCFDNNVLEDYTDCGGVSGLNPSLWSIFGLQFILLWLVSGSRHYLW

pIC50 (Ca^2 + channels)	pIC50 (alpha1 -adrenoceptors)	pEC50 (guinea pig left atria)	SMILES	Intrinsic Activity (ratio of the maximum effect of the test compound to that of Bay K 8644) (guinea pig left atria)
6.60	5.59		COC(=O)C1=C(C)NC(C)=C([N+](=O)[O-])C1c1ccccc1OCCCCCN1CCN(c2ncccn2)CC1 (stereo not shown) [Example 155]	
5.77	5.35	< 4.00	COC(=O)C1=C(C)NC(C)=C([N+](=O)[O-])C1c1cccc(OCCCN2CCN(C(c3ccc(F)cc3)c3ccc(F)cc3)CC2)c1 (stereo not shown) [Example 123]	0%
5.89	6.51		C=CCc1cccc(C2C(C(=O)OC)=C(C)NC(C)=C2[N+](=O)[O-])c1OCCCCN1CCN(c2ccccc2OC)CC1 (stereo not shown) [Example 144]	
6.74	6.20		COC(=O)C1=C(C)NC(C)=C([N+](=O)[O-])C1c1cc(Cl)ccc1OCCCCCN1CCN(c2ccccc2OC)CC1 (stereo not shown) [Example 145]	
5.17	6.37		COC(=O)C1=C(C)NC(C)=C([N+](=O)[O-])C1c1ccc(OCCCN2CCN(c3ccccc3OC)CC2)cc1 (stereo not shown) [Example 135]	
< 5.00	6.64		COc1ccccc1N1CCN(CCCOc2cccc(C3C(C(=O)Nc4ccccc4)=C(C)NC(C)=C3[N+](=O)[O-])c2)CC1 (stereo not shown) [Example 122]	
6.33	6.00		COc1ccccc1N1CCN(CCCCOc2ccccc2C2C(C(=O)OC(C)(C)C)=C(C)NC(C)=C2[N+](=O)[O-])CC1 (stereo not shown) [Example 146]	
5.44	6.82		COC(=O)C1=C(C)NC(C)=C([N+](=O)[O-])C1c1cccc(OCCCN2CCN(c3ccccc3C)CC2)c1 (stereo not shown) [Example 131]	
5.70	5.57		COC(=O)C1=C(C)NC(C)=C([N+](=O)[O-])C1c1cccc(OCC#CCN2CCN(c3ccccc3OC)CC2)c1 (stereo not shown) [Example 127]	
5.30	6.54		CCOC(=O)C1=C(C)NC(C)=C([N+](=O)[O-])C1c1cccc(OCCCN2CCN(c3ccccn3)CC2)c1 (stereo not shown) [Example 126]	
4.74	5.92		COC(=O)C1=C(C)NC(C)=C([N+](=O)[O-])C1c1cccc(OCCCN2CCN(c3ncccn3)CC2)c1 (stereo not shown) [Example 124]	
< 5.00	< 5.00		COC(=O)C1=C(C)NC(C)=C([N+](=O)[O-])C1c1cccc(OCC2OC2CN2CCN(c3ccccc3OC)CC2)c1 (stereo not shown) [Example 136]	
6.06	6.92		COC(=O)C1=C(C)NC(C)=C([N+](=O)[O-])C1c1cc(OC)ccc1OCCCCCN1CCN(c2ccccc2OC)CC1 (stereo not shown) [Example 153]	
5.08	6.47		COc1ccccc1N1CCN(CCCOc2ccccc2C2C(C(=O)OC(C)C)=C(C)NC(C)=C2[N+](=O)[O-])CC1 (stereo not shown) [Example 134]	
6.72	6.46		COC(=O)C1=C(C)NC(C)=C([N+](=O)[O-])C1c1cc(Cl)ccc1OCCCCN1CCN(c2ccccc2OC)CC1 (stereo not shown) [Example 143]	
5.52	5.09		COC(=O)C1=C(C)NC(C)=C([N+](=O)[O-])C1c1cccc(OC)c1OCC=CCN1CCN(c2ncccn2)CC1 (stereo not shown) [Example 121]	
6.20	6.08		COC(=O)C1=C(C)NC(C)=C([N+](=O)[O-])C1c1cc(Cl)cc(Cl)c1OCCCCCN1CCN(c2ccccc2OC)CC1 (stereo not shown) [Example 141]	
5.24	7.00		COC(=O)C1=C(C)NC(C)=C([N+](=O)[O-])C1c1cccc(OCCCN2CCN(c3ccccn3)CC2)c1 (stereo not shown) [Example 128]	
6.38	6.12		COc1ccccc1N1CCN(CCCCOc2ccccc2C2C(C(=O)OC(C)C)=C(C)NC(C)=C2[N+](=O)[O-])CC1 (stereo not shown) [Example 133]	
5.64	6.89		COC(=O)C1=C(C)NC(C)=C([N+](=O)[O-])C1c1cccc(OCCCN2CCN(c3ccccc3Cl)CC2)c1 (stereo not shown) [Example 132]	
6.16	6.57		COC(=O)C1=C(C)NC(C)=C([N+](=O)[O-])C1c1cc(OC)ccc1OCCCCN1CCN(c2ccccc2OC)CC1 (stereo not shown) [Example 152]	
5.85	5.03		COC(=O)C1=C(C)NC(C)=C([N+](=O)[O-])C1c1ccccc1OCCN1CCN(c2ncccn2)CC1 (stereo not shown) [Example 154]	

Second part, the compound before the results:

SMILES	pIC50 (Ca^2 + channels)	pIC50 (alpha1 -adrenoceptors)	pEC50 (guinea pig left atria)	Intrinsic Activity (ratio of the maximum effect of the test compound to that of Bay K 8644) (guinea pig left atria)
CCOC(=O)C1=C(C)NC(C)=C([N+](=O)[O-])C1c1cccc(OCCCN2CCN(c3ccccc3OC)CC2)c1 (stereo not shown) [Example 117]	5.00	6.55	< 4.00	0%
COc1ccccc1N1CCN(CCOC(=O)C2=C(C)NC(C)=C([N+](=O)[O-])C2c2ccccc2Cl)CC1 (stereo not shown) [Example 5]	7.14	6.31	6.25	100%
COC(=O)C1=C(C)NC(C)=C([N+](=O)[O-])C1c1cccc(OCCCN2CCN(c3ccccc3OC)CC2)c1 (stereo not shown) [Example 89]	5.40	7.15	4.70	20%
COC(=O)C1=C(C)NC(C)=C([N+](=O)[O-])C1c1cccc(OC)c1OCCCCN1CCN(c2ccccc2OC)CC1 (stereo not shown) [Example 110]	6.00	6.80	< 4.00	0%
COC(=O)C1=C(C)NC(C)=C([N+](=O)[O-])C1c1ccccc1OCCCCN1CCN(c2ccccn2)CC1 (stereo not shown) [Example 116]	6.24	6.30	< 4.00	0%
COC(=O)C1=C(C)NC(C)=C([N+](=O)[O-])C1c1cccc(OCCCCCN2CCN(c3ccccc3OC)CC2)c1[N+](=O)[O-] (stereo not shown) [Example 151]	5.33	6.70		
COC(=O)C1=C(C)NC(C)=C([N+](=O)[O-])C1c1cc(OCCN2CCN(c3ccccc3OC)CC2)ccc1[N+](=O)[O-] (stereo not shown) [Example 68]	4.80	6.23		
COC(=O)C1=C(C)NC(C)=C([N+](=O)[O-])C1c1cccc(OCCCN2CCN(c3ccccc3OC)CC2)c1[N+](=O)[O-] (stereo not shown) [Example 149]	5.05	6.54		
COC(=O)C1=C(C)NC(C)=C([N+](=O)[O-])C1c1ccccc1OCCCCN1CCN(c2ccccc2C)CC1 (stereo not shown) [Example 118]	6.27	6.07		
COC(=O)C1=C(C)NC(C)=C([N+](=O)[O-])C1c1cccc(OCCCCN2CCN(c3ccccc3OC)CC2)c1[N+](=O)[O-] (stereo not shown) [Example 150]	5.40	6.66		
COC(=O)C1=C(C)NC(C)=C([N+](=O)[O-])C1c1cc([N+](=O)[O-])ccc1OCCCCN1CCN(c2ccccc2OC)CC1 (stereo not shown) [Example 138]	6.66	6.55		
COC(=O)C1=C(C)NC(C)=C([N+](=O)[O-])C1c1ccccc1OCC=CCN1CCN(c2ccccc2OC)CC1 (stereo not shown) [Example 119]	6.10	6.31		
COC(=O)C1=C(C)NC(C)=C([N+](=O)[O-])C1c1ccccc1OCCCN1CCN(c2ccccc2C(F)(F)F)CC1 (stereo not shown) [Example 104]	6.70	5.07		
COc1ccccc1N1CCN(CCOC(=O)C2=C(C)NC(C)=C([N+](=O)[O-])C2c2cccc(C(F)(F)F)c2)CC1 (stereo not shown) [Example 1, 1,4-Dihydro-2,6-dimethyl-5-nitro-4-[3-(trifluoromethyl)phenyl]-[2-[4-(2-methoxyphenyl)-1-piperazinyl]ethyl]ester-3-pyridinecarboxylic acid]		6.02	4.57	30%
COc1ccccc1N1CCN(CCCCOc2ccccc2C2C(C(=O)Nc3ccccc3)=C(C)NC(C)=C2[N+](=O)[O-])CC1 (stereo not shown) [Example 115]	3.96	6.89		
COC(=O)C1=C(C)NC(C)=C([N+](=O)[O-])C1c1ccc(OCCCN2CCN(c3ccccc3OC)CC2)c([N+](=O)[O-])c1 (stereo not shown) [Example 137]	5.21	6.36		
COc1ccccc1N1CCN(CCCCOC(=O)C2=C(C)NC(C)=C([N+](=O)[O-])C2c2cccc(C(F)(F)F)c2)CC1 (stereo not shown) [Example 57]	6.00	6.01		
